Legend:
[1] = biological target: Dual specificity protein kinase CLK2 (Homo sapiens) (UniProt P49760); assay: Inhibition of T7 bacteriophage fused human CLK2 at 10 uM by KINOMEscan analysis relative to control; values are per cent of control
[2] = biological target: Tyrosine-protein kinase CSK (Homo sapiens) (UniProt P41240); assay: Inhibition of T7 bacteriophage fused human CSK at 10 uM by KINOMEscan analysis relative to control; values are per cent of control
[3] = biological target: Mitogen-activated protein kinase kinase kinase kinase 2 (Homo sapiens) (UniProt Q12851); assay: Inhibition of T7 bacteriophage fused human MAP4K2 at 10 uM by KINOMEscan analysis relative to control
[4] = biological target: Casein kinase II subunit alpha' (Homo sapiens) (UniProt P19784); assay: Inhibition of T7 bacteriophage fused human CSNK2A2 at 10 uM by KINOMEscan analysis relative to control; values are per cent of control
[5] = biological target: CDK4/Cyclin D3 (Homo sapiens) (UniProt P11802+P30281); assay: Inhibition of T7 bacteriophage fused human CDK4-cyclinD3 at 10 uM by KINOMEscan analysis relative to control; assay type: protein-complex assay
[6] = biological target: Serine/threonine-protein kinase Nek3 (Homo sapiens) (UniProt P51956); assay: Inhibition of T7 bacteriophage fused human NEK3 at 10 uM by KINOMEscan analysis relative to control
[7] = biological target: Mitogen-activated protein kinase kinase kinase 2 (Homo sapiens) (UniProt Q9Y2U5); assay: Inhibition of T7 bacteriophage fused human MAP3K2 at 10 uM by KINOMEscan analysis relative to control; values are per cent of control
[8] = biological target: Serine/threonine-protein kinase TAO2 (Homo sapiens) (UniProt Q9UL54); assay: Inhibition of T7 bacteriophage fused human TAOK2 at 10 uM by KINOMEscan analysis relative to control
[9] = biological target: Fibroblast growth factor receptor 2 (Homo sapiens) (UniProt P21802); assay: Inhibition of T7 bacteriophage fused human FGFR2 at 10 uM by KINOMEscan analysis relative to control; values are per cent of control
[10] = biological target: Fibroblast growth factor receptor 1 (Homo sapiens) (UniProt P11362); assay: Inhibition of T7 bacteriophage fused human FGFR1 at 10 uM by KINOMEscan analysis relative to control; values are per cent of control
[11] = biological target: Death-associated protein kinase 2 (Homo sapiens) (UniProt Q9UIK4); assay: Inhibition of T7 bacteriophage fused human DAPK2 at 10 uM by KINOMEscan analysis relative to control; values are per cent of control
[12] = biological target: Mitogen-activated protein kinase kinase kinase 11 (Homo sapiens) (UniProt Q16584); assay: Inhibition of T7 bacteriophage fused human MLK3 at 10 uM by KINOMEscan analysis relative to control
[13] = biological target: Myosin-IIIa (Homo sapiens) (UniProt Q8NEV4); assay: Inhibition of T7 bacteriophage fused human MYO3A at 10 uM by KINOMEscan analysis relative to control; values are per cent of control
[14] = biological target: Cyclin-G-associated kinase (Homo sapiens) (UniProt O14976); assay: Inhibition of T7 bacteriophage fused human GAK at 10 uM by KINOMEscan analysis relative to control; values are per cent of control
[15] = biological target: Death-associated protein kinase 3 (Homo sapiens) (UniProt O43293); assay: Inhibition of T7 bacteriophage fused human DAPK3 at 10 uM by KINOMEscan analysis relative to control; values are per cent of control
[16] = biological target: Mitogen-activated protein kinase 9 (Homo sapiens) (UniProt P45984); assay: Inhibition of T7 bacteriophage fused human JNK2 at 10 uM by KINOMEscan analysis relative to control
[17] = tested on: Mast/stem cell growth factor receptor Kit (Homo sapiens), P10721 [L576P]; assay: Inhibition of T7 bacteriophage fused human KIT L576P mutant at 10 uM by KINOMEscan analysis relative to control
[18] = biological target: Receptor-interacting serine/threonine-protein kinase 2 (Homo sapiens) (UniProt O43353); assay: Inhibition of T7 bacteriophage fused human RIPK2 at 10 uM by KINOMEscan analysis relative to control
[19] = biological target: Myosin light chain kinase (Homo sapiens) (UniProt Q32MK0); assay: Inhibition of T7 bacteriophage fused human MLCK at 10 uM by KINOMEscan analysis relative to control
[20] = biological target: LIM domain kinase 2 (Homo sapiens) (UniProt P53671); assay: Inhibition of T7 bacteriophage fused human LIMK2 at 10 uM by KINOMEscan analysis relative to control
[21] = biological target: cAMP-dependent protein kinase catalytic subunit beta (Homo sapiens) (UniProt P22694); assay: Inhibition of T7 bacteriophage fused human PKAC-beta at 10 uM by KINOMEscan analysis relative to control
[22] = biological target: Macrophage colony-stimulating factor 1 receptor (Homo sapiens) (UniProt P07333); assay: Inhibition of T7 bacteriophage fused human CSF1R at 10 uM by KINOMEscan analysis relative to control; values are per cent of control
[23] = biological target: Insulin-like growth factor 1 receptor (Homo sapiens) (UniProt P08069); assay: Inhibition of T7 bacteriophage fused human IGF1R at 10 uM by KINOMEscan analysis relative to control; values are per cent of control
[24] = biological target: Serine/threonine-protein kinase MRCK gamma (Homo sapiens) (UniProt Q6DT37); assay: Inhibition of T7 bacteriophage fused human DMPK2 at 10 uM by KINOMEscan analysis relative to control
[25] = biological target: Calcium/calmodulin-dependent protein kinase type IV (Homo sapiens) (UniProt Q16566); assay: Inhibition of T7 bacteriophage fused human CAMK4 at 10 uM by KINOMEscan analysis relative to control
[26] = biological target: Calcium/calmodulin-dependent protein kinase kinase 1 (Homo sapiens) (UniProt Q8N5S9); assay: Inhibition of T7 bacteriophage fused human CAMKK1 at 10 uM by KINOMEscan analysis relative to control
[27] = biological target: Serine/threonine-protein kinase Nek2 (Homo sapiens) (UniProt P51955); assay: Inhibition of T7 bacteriophage fused human NEK2 at 10 uM by KINOMEscan analysis relative to control
[28] = biological target: Calcium/calmodulin-dependent protein kinase type 1G (Homo sapiens) (UniProt Q96NX5); assay: Inhibition of T7 bacteriophage fused human CAMK1G at 10 uM by KINOMEscan analysis relative to control
[29] = biological target: Serine/threonine-protein kinase Chk2 (Homo sapiens) (UniProt O96017); assay: Inhibition of CHK2 Lys2 labeling site in human PC-3 cell lysate at 10 uM by KiNativ profiling analysis relative to control; assay type: subcellular
Chain of Serine/threonine-protein kinase Chk2 (Homo sapiens) (O96017 whole entry): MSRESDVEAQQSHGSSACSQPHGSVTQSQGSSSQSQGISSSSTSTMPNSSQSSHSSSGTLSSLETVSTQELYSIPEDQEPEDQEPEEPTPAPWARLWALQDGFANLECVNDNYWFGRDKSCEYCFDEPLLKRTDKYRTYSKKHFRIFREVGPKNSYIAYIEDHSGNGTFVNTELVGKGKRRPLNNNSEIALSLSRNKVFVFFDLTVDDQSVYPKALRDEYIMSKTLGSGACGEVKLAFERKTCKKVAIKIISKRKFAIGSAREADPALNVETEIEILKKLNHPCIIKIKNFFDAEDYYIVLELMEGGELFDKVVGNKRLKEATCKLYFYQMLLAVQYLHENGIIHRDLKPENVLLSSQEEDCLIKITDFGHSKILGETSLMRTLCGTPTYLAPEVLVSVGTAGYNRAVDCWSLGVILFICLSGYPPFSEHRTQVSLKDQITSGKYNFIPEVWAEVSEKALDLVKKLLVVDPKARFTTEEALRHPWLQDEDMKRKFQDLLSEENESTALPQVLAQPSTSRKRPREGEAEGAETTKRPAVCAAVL

Chain of Fibroblast growth factor receptor 1 (Homo sapiens) (P11362 22-822 limits assumed): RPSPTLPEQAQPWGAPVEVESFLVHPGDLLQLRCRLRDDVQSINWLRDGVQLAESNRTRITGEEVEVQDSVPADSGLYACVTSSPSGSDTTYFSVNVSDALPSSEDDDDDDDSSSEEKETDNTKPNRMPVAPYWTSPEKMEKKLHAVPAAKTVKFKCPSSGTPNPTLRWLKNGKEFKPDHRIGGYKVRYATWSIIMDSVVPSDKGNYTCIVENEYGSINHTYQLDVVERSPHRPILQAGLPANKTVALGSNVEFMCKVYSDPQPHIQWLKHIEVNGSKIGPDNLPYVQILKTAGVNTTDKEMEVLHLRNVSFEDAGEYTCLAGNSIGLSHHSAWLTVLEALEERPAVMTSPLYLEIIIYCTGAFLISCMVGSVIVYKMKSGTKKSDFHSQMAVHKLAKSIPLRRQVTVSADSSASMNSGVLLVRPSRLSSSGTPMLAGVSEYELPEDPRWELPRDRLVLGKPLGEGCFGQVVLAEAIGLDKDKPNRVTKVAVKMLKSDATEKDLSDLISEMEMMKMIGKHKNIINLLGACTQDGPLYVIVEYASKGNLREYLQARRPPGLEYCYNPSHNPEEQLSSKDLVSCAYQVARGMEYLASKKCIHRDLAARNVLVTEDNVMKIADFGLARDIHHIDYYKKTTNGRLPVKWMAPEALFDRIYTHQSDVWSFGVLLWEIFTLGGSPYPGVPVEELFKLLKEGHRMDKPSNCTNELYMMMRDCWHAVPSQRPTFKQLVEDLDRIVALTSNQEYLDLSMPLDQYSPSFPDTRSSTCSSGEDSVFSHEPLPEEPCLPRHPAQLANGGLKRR
Chain of Serine/threonine-protein kinase TAO2 (Homo sapiens) (Q9UL54 whole entry, the tested form may be a part): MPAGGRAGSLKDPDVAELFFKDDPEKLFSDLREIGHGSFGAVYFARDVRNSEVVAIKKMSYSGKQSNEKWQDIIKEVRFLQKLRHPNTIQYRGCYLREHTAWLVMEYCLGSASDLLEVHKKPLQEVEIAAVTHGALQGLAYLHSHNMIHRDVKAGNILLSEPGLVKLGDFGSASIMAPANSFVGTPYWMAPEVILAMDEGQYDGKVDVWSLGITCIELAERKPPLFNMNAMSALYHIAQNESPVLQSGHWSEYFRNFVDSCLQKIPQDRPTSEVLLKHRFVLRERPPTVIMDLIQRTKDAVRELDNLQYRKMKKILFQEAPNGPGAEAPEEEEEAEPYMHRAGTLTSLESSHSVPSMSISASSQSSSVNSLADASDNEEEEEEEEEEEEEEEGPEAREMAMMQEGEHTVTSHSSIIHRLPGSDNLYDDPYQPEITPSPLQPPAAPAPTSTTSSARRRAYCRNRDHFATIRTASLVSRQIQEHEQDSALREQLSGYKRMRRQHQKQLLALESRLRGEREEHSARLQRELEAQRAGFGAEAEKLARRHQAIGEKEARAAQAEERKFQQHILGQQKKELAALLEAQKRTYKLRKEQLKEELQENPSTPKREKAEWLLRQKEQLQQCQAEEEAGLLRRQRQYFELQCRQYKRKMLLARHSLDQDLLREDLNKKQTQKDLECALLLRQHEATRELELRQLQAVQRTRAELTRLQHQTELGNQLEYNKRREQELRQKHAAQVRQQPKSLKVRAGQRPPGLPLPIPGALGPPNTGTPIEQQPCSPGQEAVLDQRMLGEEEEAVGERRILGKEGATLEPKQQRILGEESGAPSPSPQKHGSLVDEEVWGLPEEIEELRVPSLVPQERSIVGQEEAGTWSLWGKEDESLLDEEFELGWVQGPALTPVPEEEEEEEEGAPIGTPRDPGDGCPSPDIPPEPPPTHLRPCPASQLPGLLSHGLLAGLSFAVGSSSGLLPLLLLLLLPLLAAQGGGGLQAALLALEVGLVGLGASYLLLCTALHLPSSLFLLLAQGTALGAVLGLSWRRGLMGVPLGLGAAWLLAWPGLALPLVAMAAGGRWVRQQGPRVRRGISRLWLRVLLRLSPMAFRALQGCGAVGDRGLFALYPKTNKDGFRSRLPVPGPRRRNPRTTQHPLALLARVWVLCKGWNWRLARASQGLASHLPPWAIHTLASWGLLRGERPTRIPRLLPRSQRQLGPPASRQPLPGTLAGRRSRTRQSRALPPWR
Chain of Calcium/calmodulin-dependent protein kinase type IV (Homo sapiens) (Q16566 whole entry, the tested form may be a part): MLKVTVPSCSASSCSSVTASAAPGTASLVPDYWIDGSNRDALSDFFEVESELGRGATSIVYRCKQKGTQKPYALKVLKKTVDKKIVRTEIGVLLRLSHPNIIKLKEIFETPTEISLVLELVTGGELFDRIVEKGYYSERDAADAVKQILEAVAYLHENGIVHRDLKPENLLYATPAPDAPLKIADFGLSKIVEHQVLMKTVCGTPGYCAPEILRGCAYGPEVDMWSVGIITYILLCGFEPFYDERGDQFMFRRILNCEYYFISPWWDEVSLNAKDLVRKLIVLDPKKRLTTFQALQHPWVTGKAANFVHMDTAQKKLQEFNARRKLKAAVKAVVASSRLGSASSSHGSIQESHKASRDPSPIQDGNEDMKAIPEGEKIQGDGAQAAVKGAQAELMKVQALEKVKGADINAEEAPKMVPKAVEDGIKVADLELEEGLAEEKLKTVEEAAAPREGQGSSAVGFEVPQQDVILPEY
Chain of Cyclin-G-associated kinase (Homo sapiens) (O14976 whole entry, the tested form may be a part): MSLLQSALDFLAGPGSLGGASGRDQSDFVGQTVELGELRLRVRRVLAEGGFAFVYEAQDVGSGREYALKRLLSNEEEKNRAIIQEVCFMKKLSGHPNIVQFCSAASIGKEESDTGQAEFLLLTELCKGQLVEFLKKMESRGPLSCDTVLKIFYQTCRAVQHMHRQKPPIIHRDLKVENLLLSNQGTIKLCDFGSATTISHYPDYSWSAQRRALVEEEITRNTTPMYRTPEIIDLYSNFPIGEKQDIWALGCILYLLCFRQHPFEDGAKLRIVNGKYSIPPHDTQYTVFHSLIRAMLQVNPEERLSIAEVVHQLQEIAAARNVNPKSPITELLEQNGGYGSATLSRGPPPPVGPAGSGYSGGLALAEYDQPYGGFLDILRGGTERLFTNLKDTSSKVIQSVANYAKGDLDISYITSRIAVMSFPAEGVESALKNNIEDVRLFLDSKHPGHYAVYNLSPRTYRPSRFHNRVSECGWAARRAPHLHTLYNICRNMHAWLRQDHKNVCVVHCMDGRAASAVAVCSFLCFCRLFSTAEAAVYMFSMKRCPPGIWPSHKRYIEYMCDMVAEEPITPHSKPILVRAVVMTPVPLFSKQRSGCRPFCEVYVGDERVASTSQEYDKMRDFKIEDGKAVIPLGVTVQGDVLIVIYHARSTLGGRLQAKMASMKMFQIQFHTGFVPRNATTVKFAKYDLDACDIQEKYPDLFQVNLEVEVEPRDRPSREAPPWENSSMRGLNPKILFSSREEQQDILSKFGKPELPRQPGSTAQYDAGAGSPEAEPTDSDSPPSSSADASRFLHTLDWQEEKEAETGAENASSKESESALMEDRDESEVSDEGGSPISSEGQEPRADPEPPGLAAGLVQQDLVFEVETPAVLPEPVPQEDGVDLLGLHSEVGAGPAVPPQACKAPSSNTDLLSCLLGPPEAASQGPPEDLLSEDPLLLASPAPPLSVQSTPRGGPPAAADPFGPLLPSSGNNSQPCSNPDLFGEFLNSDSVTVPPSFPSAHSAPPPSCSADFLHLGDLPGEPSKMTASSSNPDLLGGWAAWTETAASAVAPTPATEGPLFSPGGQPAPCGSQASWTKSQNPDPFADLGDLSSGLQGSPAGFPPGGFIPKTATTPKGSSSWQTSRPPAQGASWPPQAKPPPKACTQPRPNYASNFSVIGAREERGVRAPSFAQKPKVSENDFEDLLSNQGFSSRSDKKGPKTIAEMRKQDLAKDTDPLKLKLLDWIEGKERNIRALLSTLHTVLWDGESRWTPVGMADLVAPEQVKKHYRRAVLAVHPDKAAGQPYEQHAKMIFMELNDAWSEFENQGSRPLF
Chain of Serine/threonine-protein kinase Nek2 (Homo sapiens) (P51955 whole entry, the tested form may be a part): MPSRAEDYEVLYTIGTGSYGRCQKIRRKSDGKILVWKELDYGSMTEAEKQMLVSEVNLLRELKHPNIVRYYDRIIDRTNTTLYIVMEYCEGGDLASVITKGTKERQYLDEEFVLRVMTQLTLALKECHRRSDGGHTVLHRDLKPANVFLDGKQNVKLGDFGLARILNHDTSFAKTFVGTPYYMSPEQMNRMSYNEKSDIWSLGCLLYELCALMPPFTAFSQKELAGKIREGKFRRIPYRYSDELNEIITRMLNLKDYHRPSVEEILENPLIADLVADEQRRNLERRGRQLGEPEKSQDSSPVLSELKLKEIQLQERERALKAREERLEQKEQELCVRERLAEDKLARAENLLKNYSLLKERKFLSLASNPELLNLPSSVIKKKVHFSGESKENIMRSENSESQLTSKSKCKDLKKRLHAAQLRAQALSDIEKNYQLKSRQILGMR

SMILES: COc1cc(N2CCC(N3CCN(C)CC3)CC2)ccc1Nc1ncc2c(n1)N(C)c1ccccc1C(=O)N2C
- residual activity [1]: 72%
- residual activity [2]: 90%
- inhibition [3]: 100%
- residual activity [4]: 93%
- inhibition [5]: 100%
- inhibition [6]: 100%
- residual activity [7]: 97%
- inhibition [8]: 65%
- residual activity [9]: 95%
- residual activity [10]: 86%
- residual activity [11]: 67%
- inhibition [12]: 100%
- residual activity [13]: 94%
- residual activity [14]: 16%
- residual activity [15]: 67%
- inhibition [16]: 94%
- inhibition [17]: 100%
- inhibition [18]: 100%
- inhibition [19]: 100%
- inhibition [20]: 100%
- inhibition [21]: 100%
- residual activity [22]: 98%
- residual activity [23]: 96%
- inhibition [24]: 100%
- inhibition [25]: 79%
- inhibition [26]: 73%
- inhibition [27]: 100%
- inhibition [28]: 74%

SMILES: COc1cc(C(=O)N2CCC(N3CCN(C)CC3)CC2)ccc1Nc1ncc2c(n1)N(C1CCCC1)c1ccccc1C(=O)N2C
- inhibition [29]: 0%

— ChEMBL document CHEMBL5678810
